From US8877719B2, “Pest controlling composition” (Sumitomo Chemical Company, Limited, priority 2009, dated 2014)

How the values were obtained:
Type in all cases: in vivo
[1] = system: Tetranychus urticae female adult insects; test: Test Example 3: kidney bean leaf piece spray test, insecticidal ratio on Tetranychus urticae female adults; details: sprayed on kidney bean leaf pieces, three days after
Protocol: (§1) A flowable formulation containing 11.7 wt % of spinetoram (spinetoram J:spinetoram L=75:25 (weight ratio)) was diluted with water containing 0.02 vol % of a spreading agent (trade name: Sindain, manufactured by Sumitomo Chemical Co., Ltd.) so as to obtain a given concentration.
(§2) A flowable formulation containing 22.4 wt % of spirotetramat (trade name: Movento, manufactured by Bayer CropScience) was diluted with water containing 0.02 vol % of a spreading agent (trade name: Sindain, manufactured by Sumitomo Chemical Co., Ltd.) so as to obtain a given concentration.
(§3) A flowable formulation containing 22.9 wt % of spiromesifen (trade name: CLEAZAR, manufactured by Bayer CropScience) was diluted with water containing 0.02 vol % of a spreading agent (trade name: Sindain, manufactured by Sumitomo Chemical Co., Ltd.) so as to obtain a given concentration.
These water-diluted solutions were mixed to prepare a test drug solution.
A kidney bean leaf piece having a diameter of about 2 cm was inoculated with 10 Tetranychus urticae female adult insects. Then, the test drug solution was sprayed in an amount of 0.3 ml per two pieces of the kidney bean leaves. Three days after, life-or-death of the female adult insects was observed. From the observed results, the insecticidal ratio was calculated in the same manner as in Test Example 1. The test was repeated three times.

[2] = system: Spodoptera litura third-instar larvae; test: Test Example 1: cabbage leaf immersion test, insecticidal ratio on Spodoptera litura third-instar larvae (spinetoram / spirotetramat); details: cabbage leaf immersed 60 seconds, four days after
Protocol: as §1, §2
The spinetoram water-diluted solution and spirotetramat water-diluted solution were mixed to prepare a test drug solution.
(§4) Cabbage was planted in a pot having a capacity of 860 ml and allowed to grow to 4-leaves stage. Leaves of the cabbage were cut one by one. One of the cabbage leaves was immersed in a test drug solution for 60 seconds. The cabbage leaf was air-dried, then, the cabbage leaf was placed in a cup having a capacity of 500 ml containing filter paper laid therein. Ten Spodoptera litura third-instar larvae were released in this cup. Four days after, life-or-death of the tested insects was observed. The results were corrected by the following formula, thereby calculating insecticidal ratio. The test was repeated three times. Insecticidal ratio (%)=100×(Mt−Mc)/(100−Mc)
Mt: insect death ratio (%) in test compound-treated area
Mc: insect death ratio (%) in test compound-non-treated area

[3] = system: Spodoptera litura third-instar larvae; test: Test Example 2: cabbage leaf immersion test, insecticidal ratio on Spodoptera litura third-instar larvae (spinetoram / spiromesifen); details: cabbage leaf immersed 60 seconds, four days after
Protocol: as §1, §3
The spinetoram water-diluted solution and spiromesifen water-diluted solution were mixed to prepare a test drug solution.
as §4, with “From” for “The results were corrected by”, “observed results, the” for “following formula, thereby calculating”, “ratio was calculated in the same manner as in Test Example 1.” for “ratio.”, “times.” for “times. Insecticidal ratio (%)=100×(Mt−Mc)/(100−Mc)”

**Q.** With `CCOC(=O)OC1=C(c2cc(C)ccc2C)C(=O)N[C@]12CC[C@@H](OC)CC2` [spirotetramat, cis-4-(ethoxycarbonyloxy)-8-methoxy-3-(2,5-xylyl)-1-azaspiro[4,5]dec-3-en-2-one] as the compound, how does the “Insecticidal ratio (%)” value ([1]; 0.8 ppm) read?
**A.** The value was 0%.

**Q.** What about the “Insecticidal ratio (%)” value ([2]; 56 ppm) of the same compound?
**A.** The value was 10.3%.

**Q.** And the “Insecticidal ratio (%)” value ([2]; 112 ppm)?
**A.** Its value is 20.7%.

**Q.** How did the “Insecticidal ratio (%)” value ([1]; 3.2 ppm) turn out when `Cc1cc(C)c(C2=C(OC(=O)CC(C)(C)C)C3(CCCC3)OC2=O)c(C)c1` [spiromesifen, 2-oxo-3-(2,4,6-trimethylphenyl)-1-oxaspiro[4,4]nona-3-en-4-yl 3,3-dimethylbutanoate] was run?
**A.** The value was 28.0%.

**Q.** What about the “Insecticidal ratio (%)” value ([3]; 112 ppm) of the same compound?
**A.** The value was 3.4%.

**Q.** spinetoram was tested. Which “Insecticidal ratio (%)” value ([1]; 12.5 ppm) did it give?
**A.** The value was 28.4%.

**Q.** And the “Insecticidal ratio (%)” value ([3]; 0.73 ppm)?
**A.** The value was 6.9%.

**Q.** What about the “Insecticidal ratio (%)” value ([2]; 0.73 ppm) of the same compound?
**A.** Its value is 17.2%.
